Data on five cell lines can be found in the supplement of paper PMC10307832.

Common to all, as to test: relative viability (nuclei count vs DMSO), 5 days (fraction); higher = more cells survive
Compound in assay [1]: C=C(c1ccc(C(=O)O)cc1)c1cc2c(cc1C)C(C)(C)CCC2(C)C [Bexarotene] + CC(=O)c1c(C)c2cnc(Nc3ccc(N4CCNCC4)cn3)nc2n(C2CCCC2)c1=O [Palbociclib] (partner 0.5 µM)
The procedure, abridged: (§1)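 Nuclei were stained with Hoechst during a one-step fixation (final 0.05% Triton X-100, 1% formaldehyde, 1 ug/ml Hoechst) carried out 5 days after dosing, then counted on 4× images. The cells, lung cancer lines in 1536-well plates, had been dosed by pin tool the day after seeding with one drug alone or a fixed anchor-drug dose plus five library-drug doses (not always all listed) in √10 steps. Relative viability is the nuclei count in treated wells divided by that in vehicle wells, and each value is the median of duplicate plates.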

Compound in assay [2]: C=C(c1ccc(C(=O)O)cc1)c1cc2c(cc1C)C(C)(C)CCC2(C)C [Bexarotene] + O=C(CCCCCCC(=O)Nc1ccccc1)NO [Vorinostat] (partner 1 µM)
The procedure, abridged: as §1

Compound in assay [3]: C=C(c1ccc(C(=O)O)cc1)c1cc2c(cc1C)C(C)(C)CCC2(C)C [Bexarotene] + C[C@@H](Oc1cc(-c2cnn(C3CCNCC3)c2)cnc1N)c1c(Cl)ccc(F)c1Cl [Crizotinib] (partner 1 µM)
The essentials: as §1

Compound in assay [4]: C=C(c1ccc(C(=O)O)cc1)c1cc2c(cc1C)C(C)(C)CCC2(C)C [Bexarotene] + NC(=O)Nc1cc(-c2cccc(F)c2)sc1C(=O)N[C@H]1CCCNC1 [AZD7762] (partner 0.2 µM)
The procedure, abridged: as §1

As for NCI-H2405, the relative viability in assay [1] (first compound 0.08 µM) amounted to 0.541; in assay [1] (first compound 0.253 µM), 0.557; in assay [1] (first compound 0.8 µM), 0.44; in assay [1] (first compound 2.53 µM), 0.565; in assay [1] (first compound 8 µM) it was 0.508; in assay [2] (first compound 0.08 µM), 1.06. The relative viability was 1.01 in assay [2] (first compound 0.253 µM); 0.839 in assay [2] (first compound 0.8 µM); 0.755 in assay [2] (first compound 2.53 µM); 0.951 in assay [2] (first compound 8 µM); 0.945 in assay [3] (first compound 0.08 µM); 0.853 in assay [3] (first compound 0.253 µM). The relative viability was 0.665 in assay [3] (first compound 0.8 µM); 0.806 in assay [3] (first compound 2.53 µM); 0.839 in assay [3] (first compound 8 µM); 0.887 in assay [4] (first compound 0.08 µM); 0.681 in assay [4] (first compound 0.253 µM); 0.711 in assay [4] (first compound 0.8 µM). In addition, the relative viability is 0.761 in assay [4] (first compound 2.53 µM) and 0.801 in assay [4] (first compound 8 µM).

As for NCI-H3122, the relative viability stood at 0.225 in assay [1] (first compound 0.08 µM); 0.216 in assay [1] (first compound 0.253 µM); 0.187 in assay [1] (first compound 0.8 µM); 0.254 in assay [1] (first compound 2.53 µM); 0.23 in assay [1] (first compound 8 µM); 1.17 in assay [2] (first compound 0.08 µM). Further, the relative viability was 1 in assay [2] (first compound 0.253 µM); 1.01 in assay [2] (first compound 0.8 µM); 1.12 in assay [2] (first compound 2.53 µM); 1.11 in assay [2] (first compound 8 µM); 0.238 in assay [3] (first compound 0.08 µM); 0.261 in assay [3] (first compound 0.253 µM). Also, the relative viability worked out at 0.233 in assay [3] (first compound 0.8 µM); 0.276 in assay [3] (first compound 2.53 µM); 0.337 in assay [3] (first compound 8 µM); 1.05 in assay [4] (first compound 0.08 µM); 1 in assay [4] (first compound 0.253 µM); 0.944 in assay [4] (first compound 0.8 µM). Besides, the values for the relative viability in assay [4] (first compound 2.53 µM) and in assay [4] (first compound 8 µM) were 0.968 and 1.13, respectively.

Take PC-3 [JPC-3]: the relative viability came out at 0.556 in assay [1] (first compound 0.08 µM); 0.514 in assay [1] (first compound 0.253 µM); 0.492 in assay [1] (first compound 0.8 µM); 0.471 in assay [1] (first compound 2.53 µM); 0.493 in assay [1] (first compound 8 µM); 0.963 in assay [2] (first compound 0.08 µM). Besides, the relative viability in assay [2] (first compound 0.253 µM) is 0.639; in assay [2] (first compound 0.8 µM), 0.737; in assay [2] (first compound 2.53 µM), 0.417; in assay [2] (first compound 8 µM) it was 0.599; in assay [3] (first compound 0.08 µM) it was 1.02; in assay [3] (first compound 0.253 µM), 1.02. The relative viability was 0.904 in assay [3] (first compound 0.8 µM); 0.965 in assay [3] (first compound 2.53 µM); 0.857 in assay [3] (first compound 8 µM); 0.958 in assay [4] (first compound 0.08 µM); 0.705 in assay [4] (first compound 0.253 µM); 0.785 in assay [4] (first compound 0.8 µM). The relative viability in assay [4] (first compound 2.53 µM) was 0.651; in assay [4] (first compound 8 µM), 0.709.

In the case of PC-14, the relative viability in assay [1] (first compound 0.08 µM) turned out to be 0.519; in assay [1] (first compound 0.253 µM), 0.531; in assay [1] (first compound 0.8 µM), 0.543; in assay [1] (first compound 2.53 µM), 0.489; in assay [1] (first compound 8 µM), 0.344; in assay [2] (first compound 0.08 µM) it was 0.882. For the same cell line, the relative viability in assay [2] (first compound 0.253 µM) amounted to 0.844; in assay [2] (first compound 0.8 µM), 0.643; in assay [2] (first compound 2.53 µM), 0.741; in assay [2] (first compound 8 µM) it was 0.636; in assay [3] (first compound 0.08 µM), 0.912; in assay [3] (first compound 0.253 µM), 1.04. The relative viability in assay [3] (first compound 0.8 µM) turned out to be 1.04; in assay [3] (first compound 2.53 µM), 0.946; in assay [3] (first compound 8 µM), 0.841; in assay [4] (first compound 0.08 µM) it was 0.357; in assay [4] (first compound 0.253 µM) it was 0.436; in assay [4] (first compound 0.8 µM) it was 0.415. The relative viability in assay [4] (first compound 2.53 µM) is 0.299; in assay [4] (first compound 8 µM) it was 0.338.

For RERF-LC-KJ, the relative viability in assay [1] (first compound 0.08 µM) stood at 1.07; in assay [1] (first compound 0.253 µM), 1.02; in assay [1] (first compound 0.8 µM) it was 0.817; in assay [1] (first compound 2.53 µM), 0.999; in assay [1] (first compound 8 µM), 0.922; in assay [2] (first compound 0.08 µM), 0.689. Also, the relative viability is 0.707 in assay [2] (first compound 0.253 µM); 0.641 in assay [2] (first compound 0.8 µM); 0.7 in assay [2] (first compound 2.53 µM); 0.609 in assay [2] (first compound 8 µM); 0.773 in assay [3] (first compound 0.08 µM); 0.791 in assay [3] (first compound 0.253 µM). The relative viability was determined as 0.76 in assay [3] (first compound 0.8 µM); 0.777 in assay [3] (first compound 2.53 µM); 0.752 in assay [3] (first compound 8 µM); 0.97 in assay [4] (first compound 0.08 µM); 0.918 in assay [4] (first compound 0.253 µM); 0.873 in assay [4] (first compound 0.8 µM). In addition, the relative viability in assay [4] (first compound 2.53 µM) is 1.03; in assay [4] (first compound 8 µM) it was 0.849.
